In ChEMBL document CHEMBL1201862, “PubChem BioAssay data set” (2004):
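Test compounds were applied to cells in 96-well plates for 48 hours at 5 doses. Abbreviation: GI50, concentration required for 50% inhibition of growth.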 Active and inactive are the calls of the source. Rule as the data show it: active = GI50 up to about 1.1 µM and inactive = higher.

Key:
Assay in all cases: DTP human tumour cell line panel, 48 h
SR = tested on: SR
OVCAR-8 = tested on: OVCAR-8
SK-MEL-2 = tested on: SK-MEL-2
786-0 = tested on: 786-0
A498 = tested on: A498
M14 = tested on: M14
U-251 = tested on: U-251
UO-31 = tested on: UO-31
KM12 = tested on: KM12
DLD-1 = tested on: DLD-1
SF-295 = tested on: SF-295
K562 = tested on: K562
LXFL 529 = tested on: LXFL 529
CCRF-CEM = tested on: CCRF-CEM
IGROV-1 = tested on: IGROV-1
RXF 393 = tested on: RXF 393
NCI-H23 = tested on: NCI-H23
HOP-92 = tested on: HOP-92
XF498 = tested on: XF498
HOP-62 = tested on: HOP-62
HL-60 = tested on: HL-60
MOLT-4 = tested on: MOLT-4
HCT-15 = tested on: HCT-15
CAKI-1 = tested on: CAKI-1
SF-539 = tested on: SF-539
SNB-75 = tested on: SNB-75
DMS-273 = tested on: DMS-273
UACC-62 = tested on: UACC-62
HCC 2998 = tested on: HCC 2998
HOP-18 = tested on: HOP-18
ACHN = tested on: ACHN
COLO 205 = tested on: COLO 205
M19-MEL = tested on: M19-MEL
HT-29 = tested on: HT-29
SNB-78 = tested on: SNB-78
SNB-19 = tested on: SNB-19
KM-20L2 = tested on: KM-20L2
SW-620 = tested on: SW-620
SK-MEL-28 = tested on: SK-MEL-28
NCI-H460 = tested on: NCI-H460
DMS-114 = tested on: DMS-114
A549 = tested on: A549
HCT-116 = tested on: HCT-116
RPMI-8226 = tested on: RPMI-8226
EKVX = tested on: EKVX
UACC-257 = tested on: UACC-257
OVCAR-4 = tested on: OVCAR-4
OVCAR-3 = tested on: OVCAR-3
SN12C = tested on: SN12C

With `COC1C(OC(=S)Nc2ccccc2)c2ccccc2N1C(C)=O` (centres undefined) the GI50 (SR) was 48.6 µM (inactive), the GI50 (OVCAR-8) was > 100 µM (inactive) and the GI50 (SK-MEL-2) was 68.9 µM (inactive). For the same compound, the GI50 (786-0) was > 100 µM (inactive), the GI50 (A498) was > 100 µM (inactive) and the GI50 (M14) was 89.3 µM (inactive). For the same compound, the GI50 (U-251) was > 100 µM (inactive), the GI50 (UO-31) was 98.4 µM (inactive) and the GI50 (KM12) was 29.9 µM (inactive). For the same compound, the GI50 (DLD-1) was 90.2 µM (inactive), the GI50 (SF-295) was 28.4 µM (inactive) and the GI50 (K562) was > 100 µM (inactive). For the same compound, the GI50 (LXFL 529) was 44.4 µM (inactive), the GI50 (CCRF-CEM) was 64.4 µM (inactive) and the GI50 (IGROV-1) was 80.4 µM (inactive). The GI50 (RXF 393) was 26.5 µM (inactive), the GI50 (NCI-H23) was > 100 µM (inactive) and the GI50 (HOP-92) was 13.7 µM (inactive). The GI50 (XF498) was > 100 µM (inactive), the GI50 (HOP-62) was > 100 µM (inactive) and the GI50 (HL-60) was 72.8 µM (inactive). For the same compound, the GI50 (MOLT-4) was 44 µM (inactive), the GI50 (HCT-15) was 52.1 µM and the GI50 (CAKI-1) was 85.1 µM (inactive). For the same compound, the GI50 (SF-539) was > 100 µM (inactive), the GI50 (SNB-75) was > 100 µM (inactive) and the GI50 (DMS-273) was 85.3 µM (inactive). The GI50 (UACC-62) was 31.4 µM (inactive), the GI50 (HCC 2998) was > 100 µM (inactive) and the GI50 (HOP-18) was > 100 µM (inactive). For the same compound, the GI50 (ACHN) was 29 µM (inactive), the GI50 (COLO 205) was > 100 µM (inactive) and the GI50 (M19-MEL) was > 100 µM (inactive). The GI50 (HT-29) was 99.1 µM (inactive), the GI50 (SNB-78) was > 100 µM (inactive) and the GI50 (SNB-19) was > 100 µM (inactive). The GI50 (KM-20L2) was 57.4 µM (inactive), the GI50 (SW-620) was 34 µM (inactive) and the GI50 (SK-MEL-28) was > 100 µM (inactive). For the same compound, the GI50 (NCI-H460) was > 100 µM (inactive), the GI50 (DMS-114) was 60.7 µM (inactive) and the GI50 (A549) was 87.7 µM (inactive). The GI50 (HCT-116) was > 100 µM (inactive), the GI50 (RPMI-8226) was 50.4 µM (inactive) and the GI50 (EKVX) was > 100 µM (inactive). The GI50 (UACC-257) was > 100 µM (inactive), the GI50 (OVCAR-4) was 75.9 µM (inactive) and the GI50 (OVCAR-3) was > 100 µM (inactive). The GI50 (SN12C) was > 100 µM (inactive).
